Results on five molecules are retold here after paper PMC6037002, “Drug targeting to decrease cardiotoxicity – determination of the cytotoxic effect of GnRH-based conjugates containing doxorubicin, daunorubicin and methotrexate on human cardiomyocytes and endothelial cells” (Beilstein Journal of Organic Chemistry, 2018).

Where two headings read alike, the source gives them in different places.

The test system of data set [1] is primary human cardiac myocytes (HCM). The note with it: for delta slope (DS), short-term / delta slope (DS), long-term: HCM, three parallels; for delta slope (DS), short-term: 0–2 h; for delta slope (DS), long-term: 0–72 h. The source says:
(§1) The main objective of the study reported here was to evaluate the in vitro cardiotoxic effects (as undesired side effects) of […] GnRH-III-based conjugates containing doxorubicin, daunorubicin and methotrexate on two essential target cells of cardiovascular diseases: vascular endothelial cells and cardiomyocytes. The rate of cytotoxicity (antitumor effect) vs cardiotoxicity (toxic effects on cardiomyocytes and vascular endothelium) is an important factor for efficient drug development for targeted tumor therapy with minimized side effects. The technique used in this work – impedimetry – is a dedicated one for real-time monitoring of cells to distinguish short-term (0–2 hours) and long-term (0–72 hours) effects elicited by the drug or carrier–drug conjugates. The basic theory of impedimetry is that proliferation/viability of cells is well detectable by monitoring of the electric impedance (Z) in an AC environment, due to the electric insulator character of intact surface membranes composed of the phospholipid bilayer. […] While cell physiological responses of short-term exposures result in characteristic changes of cell morphology (e.g., spreading), long-term effects characteristically influence in particular the proliferation of cells, and therefore the cytotoxic effects. The presented dimensionless values of delta slope (DS) measure the difference between the slope of the curve corresponding to the treatment and that of the control curve in impedimetric recordings, the negative signs refer to the relative values to the identical control.
(§2) Experimental part – Cellular samples
(§3) In the present study, GnRH conjugates containing anti-tumour drugs (e.g., daunorubicin, doxorubicin) were investigated in order to evaluate whether the conjugates exert a decrease cardiotoxic effect compared to that of the free drugs. The cardiac myocytes and the vascular endothelium cells are the most frequently detected target cells of antitumor compounds and they are employed in our study. Human umbilical vein endothelial cells (HUVEC; Promocell, Biomedica, Wien, Austria) were cultured in Endothelial Cell Growth Medium with Endothelial Cell Growth Supplement Mix (Promocell, Biomedica, Wien, Austria) and 100 µg/mL penicillin/streptomycin. Primary human cardiac myocytes (HCM; Promocell, Biomedica, Wien, Austria) were cultured in Myocyte Growth Medium (Promocell, Biomedica, Wien, Austria).
(§4) Impedimetric measurements
(§5) The xCELLigence SP system was used for impedimetric measurements. The bottom of the wells of a 96-well E-plate is installed with a golden electrode array that constitutes the adhesion surface. Adhering cells – acting as insulators – change the electric impedance measured on the electrodes. The measured impedance change is in direct correlation with the number of adhering cells and the extent of adhesion. The results of impedance change are given in the form of Cell Index (CI) calculated by the xCELLigence system according to the […]
(§6) where Zt is the measured impedance in a time point, Zb is the background impedance and F is an inbuilt factor (F = 15 at 10 kHz) depending on the frequency of the alternating current. The measurements took place in an incubator holding a 37 °C temperature and 5% carbon-dioxide […]
(§7) The experiments started with a measurement of baseline impedance for 1 hour. After that, the cells (10^4 cells/well) were added to the wells and allowed to adhere to the electrodes. When the adhering cells reached a balanced state in the wells, signified by the impedance curves […]
(§8) free drugs at 10−12 – 10−6 M and the conjugates at 10−8 – 10−6 M final concentrations were […]
(§9) added to the wells. The changes in impedance were measured for at least 72 hours. For each measurement three parallels were measured.
(§10) The evaluation of responses followed the previously described strategy: acute effects of compounds were evaluated as a characteristic morphology of the curves in the 0–2 hours

Data set [2] concerns human umbilical vein endothelial cells (HUVEC). In words: Impedimetric measurement (xCELLigence SP), delta slope, HUVEC. The conditions noted are these: for delta slope (DS), short-term / delta slope (DS), long-term: HUVEC, three parallels; for delta slope (DS), short-term: 0–2 h; for delta slope (DS), long-term: 0–72 h; for cytotoxic effect on HUVEC, result in words: long-term (0–72 h), 10^−8–10^−6 mol/L, impedimetry, one-way ANOVA.
From the text: as §1, §2, §3, §4, §5, §6, §7, §8, §9, §10

Data set [3] concerns human acute monocytic leukemia (MonoMac6) cells. The note with it: cited from earlier work. An excerpt:
(§11) Table 1 Comparative study of cytotoxic effects and cardiotoxicity elicited by GnRH-based antitumor compounds (1–15) and reference substances (AN-152, Dox, Dau, Mtx). IC50 values show antitumor cytotoxic characteristics of the conjugates in human breast cancer (MCF-7), human colorectal adenocarcinoma (HT-29) and human acute monocytic leukemia (MM6) derived cell lines as representative tumor cells.

The test system of data set [4] is MCF-7 human breast adenocarcinoma cells. The conditions noted are these: MTT assay; cited from earlier work.
From the text: as §11
(In general: Tetrazolium assays rely on reduction of a dye to a coloured formazan, in cell work by metabolically active cells.)

Data set [5] concerns HT-29 human colon adenocarcinoma cells. The conditions noted are these: MTT assay; cited from earlier work.
From the text: as §11

Setting [6] is: grade +++/++/+/0, key not given, summary of impedimetric cytotoxicity.
Where [7] appears, read: long-term (0–72 h), 10^−8–10^−6 mol/L (free drugs 10^−12–10^−6 mol/L), impedimetry, one-way ANOVA.

A word on the IC50: it is the midpoint of a concentration-inhibition curve. Regarding “{[^4N-MeSer]-GnRH-III(Dau=Aoa-C)}2 (disulfide) [conjugate 10, disulfide dimer based on conjugate 6]”, the “delta slope (DS), short-term” value is on record as 0.001 in data set [1] (Table S4b, 10^-6 mol/L); -0.001 in data set [1] (Table S4b, 10^-7 mol/L); -0.002 in data set [1] (Table S4b, 10^-8 mol/L); 0.017 in data set [2] (Table S4a, 10^-6 mol/L); 0.011 in data set [2] (Table S4a, 10^-7 mol/L); 0.008 in data set [2] (Table S4a, 10^-8 mol/L). Besides, the “delta slope (DS), long-term” value in data set [1] (Table S4b, 10^-6 mol/L) is −0.005; in data set [1] (Table S4b, 10^-7 mol/L), −0.003; in data set [1] (Table S4b, 10^-8 mol/L), -0.001; in data set [2] (Table S4a, 10^-6 mol/L) it was 0.004; in data set [2] (Table S4a, 10^-7 mol/L), 0.002; in data set [2] (Table S4a, 10^-8 mol/L), 0.001. Moreover, the “Cardiotoxicity, HUVEC” value in data set [2] (setting [6]) was found to be 0. Moreover, the “cytotoxic effect on HUVEC, result in words” value (shortened to “cytotoxic effect on HUVEC”) in data set [2] is on record as “completely lost the cytotoxic effect”. In addition, the IC50 in data set [3] is 783 ± 90 nM; in data set [4] it was 6200 ± 1500 nM.
Turning to “[^4Lys(Mtx)]-GnRH-III(Dau=Aoa) [conjugate 15]”, the “delta slope (DS), short-term” value in data set [1] (Table S5b, 10^-6 mol/L) was -0.001; in data set [1] (Table S5b, 10^-7 mol/L), -0.002; in data set [1] (Table S5b, 10^-8 mol/L), -0.003; in data set [2] (Table S5a, 10^-6 mol/L), 0.006; in data set [2] (Table S5a, 10^-7 mol/L) it was -0.002; in data set [2] (Table S5a, 10^-8 mol/L), 0.006. Besides, the “delta slope (DS), long-term” value in data set [1] (Table S5b, 10^-6 mol/L) is reported as -0.001; in data set [1] (Table S5b, 10^-7 mol/L), 0.001; in data set [1] (Table S5b, 10^-8 mol/L) it was -0.001; in data set [2] (Table S5a, 10^-6 mol/L), -0.001; in data set [2] (Table S5a, 10^-7 mol/L), -0.001; in data set [2] (Table S5a, 10^-8 mol/L), 0.003. Besides, the “Cardiotoxicity, HCM” value in data set [1] (setting [6]) is recorded as 0. In addition, the “cytotoxic effect on HCM, result in words” value in data set [1] (setting [7]) is “none of the two investigated mixed drug–GnRH-III conjugates (13 and 15) exerted any significant cytotoxic effect”. For the same molecule, the “Cardiotoxicity, HUVEC” value in data set [2] (setting [6]) is 0. Further, in data set [2], the “cytotoxic effect on HUVEC” value is “no significant cytotoxic effect”. The IC50 in data set [3] was greater than 1000 nM; in data set [4], 5800 ± 1100 nM; in data set [5], 3600 ± 1500 nM.
Turning to “{GnRH-III(Dau=Aoa-YRRL-C)}2 [conjugate 11]”, the “delta slope (DS), short-term” value is -0.004 in data set [1] (Table S4b, 10^-6 mol/L); -0.001 in data set [1] (Table S4b, 10^-7 mol/L); -0.001 in data set [1] (Table S4b, 10^-8 mol/L); 0.014 in data set [2] (Table S4a, 10^-6 mol/L); 0.002 in data set [2] (Table S4a, 10^-7 mol/L); 0.022 in data set [2] (Table S4a, 10^-8 mol/L). For the same molecule, the “delta slope (DS), long-term” value was −0.004 in data set [1] (Table S4b, 10^-6 mol/L); -0.002 in data set [1] (Table S4b, 10^-7 mol/L); -0.001 in data set [1] (Table S4b, 10^-8 mol/L); −0.017 in data set [2] (Table S4a, 10^-6 mol/L); −0.005 in data set [2] (Table S4a, 10^-7 mol/L); 0.001 in data set [2] (Table S4a, 10^-8 mol/L). In addition, the IC50 in data set [3] is 420 ± 50 nM.
On to `CN(Cc1cnc2nc(N)nc(N)c2n1)c1ccc(C(=O)N[C@@H](CCC(=O)O)C(=O)O)cc1` [methotrexate], for which the “Cardiotoxicity, HCM” value in data set [1] is given as 0. Further, the “cytotoxic effect on HCM, result in words” value in data set [1] was “no significant effect was measured”. For the same molecule, the “delta slope (DS), short-term” value is recorded as 0.005 in data set [1] (Table S1b, 10^-6 mol/L); 0.001 in data set [1] (Table S1b, 10^-7 mol/L); 0.001 in data set [1] (Table S1b, 10^-8 mol/L); -0.001 in data set [1] (Table S1b, 10^-9 mol/L); 0.001 in data set [1] (Table S1b, 10^-10 mol/L); 0.001 in data set [1] (Table S1b, 10^-11 mol/L). Further, the “delta slope (DS), short-term” value in data set [1] (Table S1b, 10^-12 mol/L) is 0.002; in data set [1] (Table S5b, 10^-6 mol/L), 0.001; in data set [2] (Table S1a, 10^-6 mol/L) it was 0.001; in data set [2] (Table S1a, 10^-7 mol/L), 0.002; in data set [2] (Table S1a, 10^-8 mol/L), 0.013; in data set [2] (Table S1a, 10^-9 mol/L), 0.019. Besides, the “delta slope (DS), short-term” value is recorded as 0.012 in data set [2] (Table S1a, 10^-10 mol/L); 0.013 in data set [2] (Table S1a, 10^-11 mol/L); 0.015 in data set [2] (Table S1a, 10^-12 mol/L); 0.005 in data set [2] (Table S5a, 10^-6 mol/L); 0.003 in data set [2] (Table S5a, 10^-7 mol/L); -0.003 in data set [2] (Table S5a, 10^-8 mol/L). The “Cardiotoxicity, HUVEC” value in data set [2] is given as “+”. Also, the IC50 in data set [3] is 8 ± 0.2 nM; in data set [5] it was 1400 ± 600 nM.
Regarding [GnRH-III(Dau=Aoa-C)]2 [conjugate 9], the “delta slope (DS), short-term” value in data set [1] (Table S4b, 10^-6 mol/L) was 0.003; in data set [1] (Table S4b, 10^-7 mol/L) it was 0.002; in data set [1] (Table S4b, 10^-8 mol/L) it was -0.001; in data set [2] (Table S4a, 10^-6 mol/L), 0.014; in data set [2] (Table S4a, 10^-7 mol/L) it was 0.008; in data set [2] (Table S4a, 10^-8 mol/L), 0.001. The “delta slope (DS), long-term” value in data set [1] (Table S4b, 10^-6 mol/L) is recorded as -0.001; in data set [1] (Table S4b, 10^-7 mol/L), -0.001; in data set [1] (Table S4b, 10^-8 mol/L), -0.002; in data set [2] (Table S4a, 10^-6 mol/L), 0.001; in data set [2] (Table S4a, 10^-7 mol/L), -0.001; in data set [2] (Table S4a, 10^-8 mol/L), -0.002. Besides, the “Cardiotoxicity, HCM” value in data set [1] (setting [6]) is 0. Besides, the “cytotoxic effect on HCM, result in words” value in data set [1] (setting [7]) is reported as “completely lost their cytotoxic effect”. Also, the “Cardiotoxicity, HUVEC” value in data set [2] (setting [6]) is recorded as 0. Moreover, in data set [2], the “cytotoxic effect on HUVEC” value is reported as “completely lost the cytotoxic effect”. Moreover, the figures for the IC50 in data set [3] and in data set [4] were 1690 ± 410 nM and 4100 ± 800 nM, respectively.
